We go through 23 compounds from US20250034170A1, “SMALL MOLECULE MODULATORS OF GLUCOCEREBROSIDASE ACTIVITY AND USES THEREOF” (Vanqua Bio, Inc., priority 2021, published 2025).

Where only a bound is given, the exact number is not on record here.

One test has as its target T1, GCase (Homo sapiens, UniProt P04062).
T1 construct: endogenous in cells; host or cells: HeLa cells
T1 sequence (P04062 40-536): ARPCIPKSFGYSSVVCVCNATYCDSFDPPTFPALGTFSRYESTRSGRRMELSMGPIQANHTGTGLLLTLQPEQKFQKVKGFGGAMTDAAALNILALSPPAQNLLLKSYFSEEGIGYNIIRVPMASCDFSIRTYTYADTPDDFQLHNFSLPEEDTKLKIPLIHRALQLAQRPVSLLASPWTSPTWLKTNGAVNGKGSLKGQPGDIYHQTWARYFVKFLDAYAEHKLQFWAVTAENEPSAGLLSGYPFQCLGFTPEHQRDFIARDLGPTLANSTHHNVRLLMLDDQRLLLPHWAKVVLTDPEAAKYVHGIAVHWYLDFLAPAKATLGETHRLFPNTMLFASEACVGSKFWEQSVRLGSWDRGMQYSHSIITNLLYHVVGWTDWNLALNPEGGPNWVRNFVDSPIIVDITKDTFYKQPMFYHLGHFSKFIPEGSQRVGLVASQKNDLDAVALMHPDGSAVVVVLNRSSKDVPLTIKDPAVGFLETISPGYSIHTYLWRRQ
The test is described as follows: activation of GCase in a live cell PFB assay in HELA cells. Format: cell-based. To be noted: EC50 given as range classes. As to the method:
Exemplary compounds were evaluated for activation of GCase in a live cell PFB assay in HELA cells (essentially as described in Ysselstein et al., “LRRK2 kinase activity regulates lysosomal glucocerebrosidase in neurons derived from Parkinson's disease patients” Nature Communications (2019) 10:5570). […] EC50 ranges: A: <10 μM; B: >10-50 μM; C: >50-100 μM; D: >100 μM.
For orientation: EC50 means the midpoint of the concentration-response curve. The low end stands for a more potent agent, the high end for a less potent agent. `Cc1nn(CC(F)F)c2nc(N3CCC4(CCN(c5cc(C(F)(F)F)ccn5)C4)CC3)cnc12` [Compound 178, 8-[1-(2,2-difluoroethyl)-3-methyl-1H-pyrazolo[3,4-b]pyrazin-6-yl]-2-[4-(trifluoromethyl)pyridin-2-yl]-2,8-diazaspiro[4.5]decane]: the EC50 fell in the range of 10 to 50 µM.

The compound `Cc1nc2cnn(CC(F)F)c2nc1N1CCC2(CCN(c3cc(C(F)(F)F)ccn3)C2)CC1` [Compound 179, 8-[1-(2,2-difluoroethyl)-5-methyl-1H-pyrazolo[3,4-b]pyrazin-6-yl]-2-[4-(trifluoromethyl)pyridin-2-yl]-2,8-diazaspiro[4.5]decane] yielded an EC50 of 10 to 50 µM.

`FC(F)(F)c1ccnc(N2CCC3(CCN(c4cncc(-c5nncs5)n4)CC3)C2)c1` [Compound 180, 8-[6-(1,3,4-thiadiazol-2-yl)pyrazin-2-yl]-2-[4-(trifluoromethyl)pyridin-2-yl]-2,8-diazaspiro[4.5]decane] had a concentration for a half-maximal effect (EC50) of 10 to 50 µM.

`FC(F)Cn1ncc2ncc(N3CC4(CCN(c5cc(C(F)(F)F)ccn5)C4)C3)nc21` [Compound 181, 2-[1-(2,2-difluoroethyl)-1H-pyrazolo[3,4-b]pyrazin-6-yl]-6-[4-(trifluoromethyl)pyridin-2-yl]-2,6-diazaspiro[3.4]octane] showed a concentration giving a half-maximal response (EC50) of 10 to 50 µM.

For `FC(F)Cn1ncc2ncc(N3CC4(CCN(c5ccc(C(F)(F)F)cn5)C4)C3)nc21` [Compound 182, 2-[1-(2,2-difluoroethyl)-1H-pyrazolo[3,4-b]pyrazin-6-yl]-6-[5-(trifluoromethyl)pyridin-2-yl]-2,6-diazaspiro[3.4]octane], the EC50 is less than 10 µM.

The compound `FC(F)Cn1ncc2ncc(N3CC4(CCN(c5ccc(C(F)(F)F)nc5)C4)C3)nc21` [Compound 183, 2-[1-(2,2-difluoroethyl)-1H-pyrazolo[3,4-b]pyrazin-6-yl]-6-[6-(trifluoromethyl)pyridin-3-yl]-2,6-diazaspiro[3.4]octane] displayed a concentration for a half-maximal effect (EC50) of 50 to 100 µM.

`FC(F)Cn1ncc2ncc(N3CC4(CCN(c5cncc(C(F)(F)F)c5)C4)C3)nc21` [Compound 184, 2-[1-(2,2-difluoroethyl)-1H-pyrazolo[3,4-b]pyrazin-6-yl]-6-[5-(trifluoromethyl)pyridin-3-yl]-2,6-diazaspiro[3.4]octane] showed a 50% effective concentration (EC50) of 10 to 50 µM.

The compound `FC(F)Cn1ncc2ncc(N3CC4(CCN(c5cccc(C(F)(F)F)n5)C4)C3)nc21` [Compound 185, 2-[1-(2,2-difluoroethyl)-1H-pyrazolo[3,4-b]pyrazin-6-yl]-6-[6-(trifluoromethyl)pyridin-2-yl]-2,6-diazaspiro[3.4]octane] gave an EC50 of more than 100 µM.

For the compound `FC(F)Cn1ncc2ncc(N3CCC4(CN(c5ccc(C(F)(F)F)cn5)C4)C3)nc21` [Compound 186, 6-[1-(2,2-difluoroethyl)-1H-pyrazolo[3,4-b]pyrazin-6-yl]-2-[5-(trifluoromethyl)pyridin-2-yl]-2,6-diazaspiro[3.4]octane], the 50% effective concentration (EC50) lay in the range of 10 to 50 µM.

`FC(F)Cn1ncc2ncc(N3CCC4(CN(c5cc(C(F)(F)F)ccn5)C4)C3)nc21` [Compound 187, 6-[1-(2,2-difluoroethyl)-1H-pyrazolo[3,4-b]pyrazin-6-yl]-2-[4-(trifluoromethyl)pyridin-2-yl]-2,6-diazaspiro[3.4]octane] had a concentration giving a half-maximal response (EC50) of 10 to 50 µM.

Compound `FC(F)Cn1ncc2ncc(N3CCC4(CCCN4c4ccnc(C(F)(F)F)c4)C3)nc21` (centres unmarked) [Compound 188, 7-[1-(2,2-difluoroethyl)-1H-pyrazolo[3,4-b]pyrazin-6-yl]-1-[2-(trifluoromethyl)pyridin-4-yl]-1,7-diazaspiro[4.4]nonane] yielded a 50% effective concentration (EC50) of more than 100 µM.

In turn, `FC(F)Cn1ncc2ncc(NC3CCC4(C3)CN(c3ccc(C(F)(F)F)nc3)C4)nc21` (centres unmarked) [Compound 189, N-[1-(2,2-difluoroethyl)-1H-pyrazolo[3,4-b]pyrazin-6-yl]-2-[6-(trifluoromethyl)pyridin-3-yl]-2-azaspiro[3.4]octan-6-amine] yielded a 50% effective concentration (EC50) of less than 10 µM.

Compound `FC(F)Cn1ncc2ncc(NC3CCC4(C3)CN(c3cc(C(F)(F)F)ccn3)C4)nc21` (centres unmarked) [Compound 190, N-[1-(2,2-difluoroethyl)-1H-pyrazolo[3,4-b]pyrazin-6-yl]-2-[4-(trifluoromethyl)pyridin-2-yl]-2-azaspiro[3.4]octan-6-amine] gave an EC50 of less than 10 µM.

The test is the same for the next values; noted with them: activation of GCase, EC50 ranges.
As to `Cc1nn(CC(F)F)c2nc(N3CCC4(CC3)CCN(c3cc(C(F)(F)F)ccn3)C4=O)cnc12` [Compound 168, 8-[1-(2,2-difluoroethyl)-3-methyl-1H-pyrazolo[3,4-b]pyrazin-6-yl]-2-[4-(trifluoromethyl)pyridin-2-yl]-2,8-diazaspiro[4.5]decan-1-one], the EC50 was less than 10 µM.

`O=C1N(c2cc(C(F)(F)F)ccn2)CCC12CCN(c1cncc(-c3nncs3)n1)CC2` [Compound 169, 8-[6-(1,3,4-thiadiazol-2-yl)pyrazin-2-yl]-2-[4-(trifluoromethyl)pyridin-2-yl]-2,8-diazaspiro[4.5]decan-1-one]: the EC50 was less than 10 µM.

In the case of `FC(F)Cn1ncc2ncc(N3CCC4(CCN(c5cccnc5C(F)(F)F)CC4)C3)nc21` [Compound 170, 2-[1-(2,2-difluoroethyl)-1H-pyrazolo[3,4-b]pyrazin-6-yl]-8-[2-(trifluoromethyl)pyridin-3-yl]-2,8-diazaspiro[4.5]decane], the EC50 was in the range of 10 to 50 µM.

Regarding `FC(F)Cn1ncc2ncc(N3CC4(CN(c5cc(C(F)(F)F)ccn5)CCO4)C3)nc21` [Compound 171, 2-[1-(2,2-difluoroethyl)-1H-pyrazolo[3,4-b]pyrazin-6-yl]-8-[4-(trifluoromethyl)pyridin-2-yl]-5-oxa-2,8-diazaspiro[3.5]nonane], the EC50 was in the range of 10 to 50 µM.

`FC(F)Cn1ncc2ncc(N3CC4(CN(c5ccc(C(F)(F)F)cn5)CCO4)C3)nc21` [Compound 172, 2-[1-(2,2-difluoroethyl)-1H-pyrazolo[3,4-b]pyrazin-6-yl]-8-[5-(trifluoromethyl)pyridin-2-yl]-5-oxa-2,8-diazaspiro[3.5]nonane]: the concentration for a half-maximal effect (EC50) was 10 to 50 µM.

`FC(F)Cn1ncc2ncc(N3CC4(CN(c5ccc(C(F)(F)F)nc5)CCO4)C3)nc21` [Compound 173, 2-[1-(2,2-difluoroethyl)-1H-pyrazolo[3,4-b]pyrazin-6-yl]-8-[6-(trifluoromethyl)pyridin-3-yl]-5-oxa-2,8-diazaspiro[3.5]nonane]: the EC50 is 10 to 50 µM.

As to `FC(F)Cn1ncc2ncc(N3CCC4(CN(c5cc(C(F)(F)F)ccn5)CCO4)C3)nc21` (centres unmarked) [Compound 174, 2-[1-(2,2-difluoroethyl)-1H-pyrazolo[3,4-b]pyrazin-6-yl]-9-[4-(trifluoromethyl)pyridin-2-yl]-6-oxa-2,9-diazaspiro[4.5]decane], the EC50 was in the range of 50 to 100 µM.

The compound `FC(F)Cn1ncc2ncc(N3CCC4(CN(c5ccc(C(F)(F)F)cn5)CCO4)C3)nc21` (centres unmarked) [Compound 175, 2-[1-(2,2-difluoroethyl)-1H-pyrazolo[3,4-b]pyrazin-6-yl]-9-[5-(trifluoromethyl)pyridin-2-yl]-6-oxa-2,9-diazaspiro[4.5]decane] registered a concentration for a half-maximal effect (EC50) of 50 to 100 µM.

With `FC(F)Cn1ncc2ncc(N3CCC4(CN(c5ccc(C(F)(F)F)nc5)CCO4)C3)nc21` (centres unmarked) [Compound 176, 2-[1-(2,2-difluoroethyl)-1H-pyrazolo[3,4-b]pyrazin-6-yl]-9-[6-(trifluoromethyl)pyridin-3-yl]-6-oxa-2,9-diazaspiro[4.5]decane], the EC50 is more than 100 µM.

As to `FC(F)(F)Cn1ncc2ncc(N3CCC4(CCN(c5cc(C(F)(F)F)ccn5)C4)CC3)nc21` [Compound 177, 8-[1-(2,2,2-trifluoroethyl)-1H-pyrazolo[3,4-b]pyrazin-6-yl]-2-[4-(trifluoromethyl)pyridin-2-yl]-2,8-diazaspiro[4.5]decane], the EC50 was 50 to 100 µM.
